These results are taken from patent US11701368B2 (EYE CO PTY LTD, priority 2018, dated 2023).

Where two headings read alike, the source gives them in different places.

In general, solubility refers to the concentration that dissolves in the medium under given conditions. The low end stands for little dissolved substance, the high end for much dissolved substance.

The target of series [1] is T1, glucocorticoid receptor (Homo sapiens, UniProt P04150).
T1 sequence (P04150 1-777): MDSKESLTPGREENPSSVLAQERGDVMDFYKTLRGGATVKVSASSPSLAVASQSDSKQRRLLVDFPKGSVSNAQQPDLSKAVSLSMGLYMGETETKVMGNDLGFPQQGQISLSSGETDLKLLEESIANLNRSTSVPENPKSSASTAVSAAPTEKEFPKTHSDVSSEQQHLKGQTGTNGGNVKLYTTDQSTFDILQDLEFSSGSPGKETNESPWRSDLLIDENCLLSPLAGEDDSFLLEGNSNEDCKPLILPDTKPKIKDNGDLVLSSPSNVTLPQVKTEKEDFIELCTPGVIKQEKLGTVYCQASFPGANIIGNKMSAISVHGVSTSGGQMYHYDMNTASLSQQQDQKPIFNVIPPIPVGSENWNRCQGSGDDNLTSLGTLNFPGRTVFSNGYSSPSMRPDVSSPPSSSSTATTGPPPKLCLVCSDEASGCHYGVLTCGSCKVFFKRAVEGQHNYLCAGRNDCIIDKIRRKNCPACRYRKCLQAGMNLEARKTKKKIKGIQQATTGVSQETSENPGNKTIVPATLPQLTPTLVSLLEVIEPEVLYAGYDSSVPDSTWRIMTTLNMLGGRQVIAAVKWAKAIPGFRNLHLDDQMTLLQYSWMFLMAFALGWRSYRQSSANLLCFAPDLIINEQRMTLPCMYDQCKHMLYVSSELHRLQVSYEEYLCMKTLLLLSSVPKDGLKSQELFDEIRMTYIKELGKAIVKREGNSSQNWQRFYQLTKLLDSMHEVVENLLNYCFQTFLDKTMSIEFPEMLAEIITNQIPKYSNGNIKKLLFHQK
As to the kind of experiment: Glucocorticoid receptor activity (GR potency) of corticosterones. The conditions noted are these: relative potency, hydrocortisone (cortisol) = 1.

Series [2] deals with T2, mineralocorticoid receptor (Homo sapiens, UniProt P08235).
T2 sequence (P08235 1-984): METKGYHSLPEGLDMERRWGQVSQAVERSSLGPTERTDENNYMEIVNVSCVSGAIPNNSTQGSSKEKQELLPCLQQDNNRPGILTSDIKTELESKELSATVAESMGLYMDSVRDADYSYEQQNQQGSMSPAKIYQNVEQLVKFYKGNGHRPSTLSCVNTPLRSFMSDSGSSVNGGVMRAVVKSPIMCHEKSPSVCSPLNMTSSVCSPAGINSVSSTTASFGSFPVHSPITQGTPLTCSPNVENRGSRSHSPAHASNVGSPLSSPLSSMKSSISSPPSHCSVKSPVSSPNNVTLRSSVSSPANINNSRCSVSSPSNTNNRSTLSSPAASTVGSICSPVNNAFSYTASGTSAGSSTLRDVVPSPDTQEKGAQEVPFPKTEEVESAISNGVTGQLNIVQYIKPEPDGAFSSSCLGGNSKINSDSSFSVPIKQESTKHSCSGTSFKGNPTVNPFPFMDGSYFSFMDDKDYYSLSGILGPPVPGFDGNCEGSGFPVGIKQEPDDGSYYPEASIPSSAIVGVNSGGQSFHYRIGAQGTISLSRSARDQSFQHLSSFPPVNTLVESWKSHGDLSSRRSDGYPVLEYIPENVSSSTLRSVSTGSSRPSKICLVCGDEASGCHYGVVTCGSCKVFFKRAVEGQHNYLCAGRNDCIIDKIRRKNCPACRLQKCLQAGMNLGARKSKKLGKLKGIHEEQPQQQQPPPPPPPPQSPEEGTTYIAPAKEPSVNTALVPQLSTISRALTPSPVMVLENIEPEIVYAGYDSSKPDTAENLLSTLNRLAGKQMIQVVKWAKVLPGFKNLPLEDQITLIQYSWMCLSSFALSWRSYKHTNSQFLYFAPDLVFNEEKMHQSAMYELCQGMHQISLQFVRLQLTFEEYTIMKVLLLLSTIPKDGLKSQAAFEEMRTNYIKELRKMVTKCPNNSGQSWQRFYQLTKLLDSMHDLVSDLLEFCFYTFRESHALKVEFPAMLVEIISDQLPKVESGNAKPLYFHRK
The series is described as follows: Mineralocorticoid receptor activity (MR potency) of corticosterones. The settings on record: relative potency, hydrocortisone (cortisol) = 1.

A further series in a line: physchem. From the text: FIG. 1: Solubility enhancement for MR compounds and TA in saline with addition of hydroxy propyl β-cyclodextrin (data are mean±sd, n=3). Top: FLU and TA; Bottom: 11-DC; DCS and DCSA.
Series [3] is described as follows: Stability of drug aqueous solutions under autoclave conditions. The class given is physicochemical. The settings on record: saturated solution, 121° C./30 min. From the text:
Preferably, the study materials are sterile, at least to a large degree for preclinical studies. In the absence of a facility for complete aseptic manufacture, in order to sterilize the suspensions there are two possible approaches foreseen—autoclaving the final suspensions in ‘vial’, or gamma sterilization.

Series [4] is described as follows: Stability of drug aqueous solutions under gamma irradiation. The conditions noted are these: saturated aqueous solution, ~25 kGy at ambient temperature. The class given is physicochemical. As to the method:
Preferably, the study materials are sterile, at least to a large degree for preclinical studies. In the absence of a facility for complete aseptic manufacture, in order to sterilize the suspensions there are two possible approaches foreseen—autoclaving the final suspensions in ‘vial’, or gamma sterilization. Consequently, in order to initially test the resistance of the drug to degradation in the ‘wet’ environment, drug in saturated solutions were prepared as for the storage stability studies above and subjected to autoclave conditions (121° C./30 min) or gamma irradiation (˜25 kGy at ambient temperature).
Gamma irradiation was conducted at a firm in Melbourne (Steritech; 160 South Gippsland Hwy, Dandenong Sth) and QC certificates provided verifying dose of gamma irradiation received. The samples were exposed to 25 kGy radiation, which severely discoloured the vials, in long term this method may be very suitable when an appropriate glass container, resistant to gamma rays, is used for sample preparation.

Series [5] can be described thus: Stability of dry drug powders under gamma irradiation. Type of series: physicochemical. The conditions noted are these: 25 kGy. From the text: The poor stability of most drugs under either autoclave or gamma irradiation when in contact with aqueous diluent led to a further set of stability studies to test the effect of gamma irradiation on the dry drug powders, with a view to providing the study materials as sterile powders for reconstitution immediately prior to administration.

A short description of series [6]: Particle sizing by laser light scattering. The class given is physicochemical. The settings on record: as received powder.
Series [7] can be described thus: Batch production: Av drug content per vial (RGA40/1). The settings on record: batch after freeze drying and gamma sterilization; specification 20.0 ± 2.0 mg. The class given is physicochemical.
Series [8] is described as follows: Batch production: particle size (RGA40/2). Type of series: physicochemical.
A short description of series [9]: Batch production: pH (RGA40/3). Type of series: physicochemical. The settings on record: specification 6.0-8.0.
The target in series [10] is T1, glucocorticoid receptor. The settings on record: relative to cortisol; cited from earlier work.
Series [11] concerns New Zealand albino rabbit eyes. The settings on record: in vivo.
Experimental: (§1) All animals were examined before and after injection using the indirect ophthalmoscope and slit-lamp biomicroscopy. Electroretinography (ERG) was performed on all animals before intravitreal injection and two weeks after injection. The animals were re-examined at this time by indirect ophthalmoscopy and slit-lamp biomicroscopy and were euthanized. The eyes were enucleated and examined with light microscopy.
(§2) Surgeries were performed on the eyes of 25 New Zealand white rabbits. […] The control eyes received 0.1 ml of sterile BSS. All animals were examined before and after injection using indirect ophthalmoscope and slit-lamp biomicroscopy. Electroretinography (ERG) was performed on all animals prior to intravitreal injection and two weeks after injection. The animals were re-examined at this time by indirect ophthalmoscope and slit-lamp biomicroscopy and were euthanized. Their eyes were enucleated and examined with light microscopy.
In series [12] the target is T2, mineralocorticoid receptor. The conditions noted are these: relative to cortisol; cited from earlier work.
The next series concerns rat model of dry AMD. The settings on record: compared with TA; Provis et al.; cited from earlier work.
Series [13] deals with New Zealand albino rabbit eyes. The settings on record: cited from earlier work; for ERG in the other groups / other eyes: intravitreal 400 μg, 1 mg, 2 mg/0.1 ml and remaining eyes; for time by which all aggregates disappeared: intravitreal.
Series [14] has as its system New Zealand albino rabbit eyes. The series is described as follows: Intravitreal toxicology of fludrocortisone acetate in rabbits. The conditions noted are these: every 4 weeks; based on difference in vitreous volume between man and rabbit.
Experimental: as §1, §2

Take `CC(=O)OCC(=O)[C@H]1CC[C@H]2[C@@H]3CCC4=CC(=O)CC[C@]4(C)[C@H]3CC[C@]12C` [DCSA, deoxycorticosterone acetate]: at glucocorticoid receptor [1], the GR potency was 0. In [2], the MR potency is given as 20. For the same compound, the “aqueous solubility relative to the other compounds” value in “physchem” is on record as “very low”. Further, the “plateau concentration in solution” value in the series “physchem” (48 h) is recorded as “around 2 mg/mL”. The compound also returned a solubility in the series “physchem” (aqueous with cosolvent or surfactant or cyclodextrin, thermodynamic from solid) of more than 6000 µg/mL. Also, the “stability of aqueous solution to autoclave conditions” value in [3] was “completely degraded to DCS”. Moreover, the “stability of aqueous solution to gamma irradiation” value in [4] was “completely degraded”. For the same compound, in [5], the “stability of dry powder to gamma sterilization (drug content vs non-irradiated control)” value is recorded as “slight reduction in drug content”. Also, in [6], the “D(v, 0.5)” value turned out to be 52 microns and the “D(v, 0.9)” value was 226 microns. In series [7], the “Av Drug Content per vial” value was “Av Drug RGA40/1 20.0 ± 2.0 mg 16 ± 0.9 2 Nov. 2006 Failed•”. Further, in [8] (specification <20), the “Particle Size D(0.5)” value is reported as “Particle RGA40/2 D(0.5) = <20 8.25 3 Nov. 2006 Passed”. In series [8] (specification <30), the “Particle Size D(0.9)” value is “Size D(0.9) = <30 26.77”. In addition, in series [9], the pH result is “pH RGA40/3 6.0-8.0 7.0 3 Nov. 2006 Passed”.

With `CC(=O)OCC(=O)[C@@]1(O)CC[C@H]2[C@@H]3CCC4=CC(=O)CC[C@]4(C)[C@@]3(F)[C@@H](O)C[C@@]21C` [Fludrocortisone acetate, 9-α-Fiuoro-11β. 17α, 21-trihydroxy-4-pregnene-3, 20 dione acetate], the MR potency in series [2] is recorded as 200. Also, the “glucocorticoid activity, times higher than cortisol” value at glucocorticoid receptor [10] is “ten”. For the same compound, the “tolerability in a panel of animal toxicology studies” value in series [11] is “well-tolerated”. Further, the “mineralocorticoid effect, times higher than cortisol” value in series [12] is listed as 250 times. In addition, the “preventing cell death, macrophage recruitment, preserving a- and b-wave ERG amplitude” value in the series with rat model of dry AMD is given as “superior to TA”. Besides, the “histological examination of retinal sections (light microscopy)” value in series [13] (400 μg to 4 mg/0.1 ml) is listed as “no evidence of toxicity or vacuolization except for one eye in the 4 mg group”. The IOP result in [13] (all groups) is “normal”. In addition, the “ERG in the other groups / other eyes” value in series [13] (two weeks after injection) is listed as “normal ERG”; in series [13] (two weeks after injection, listed as FCA), “no other problems of reductions in ERG”. Besides, the “eyes with intravitreal haemorrhage and reduced ERG” value in series [13] (intravitreal 4 mg/0.1 ml, 25 normal rabbits) is given as “Two”. Moreover, the “eyes with decreases in ERG” value in [13] (intravitreal 4 mg/0.1 ml, two weeks after injection) is on record as “one”. Further, the “time by which all aggregates disappeared” value in [13] (2-mg group) was 22 ± 8 days; in series [13] (4-mg group), 33 ± 7 days. The “inflammation in anterior or posterior segment (slit lamp biomicroscopy, indirect ophthalmoscopy)” value in [13] (up to 40 days of observations) is “did not show any evidence of significant inflammation”. Also, the human equivalent dose in series [14] is reported as 67 mg/eye.
